Test results taken from article PMC13028883 (Pharmaceuticals, 2026).

Experiment: Pharmacokinetics of anthraquinones in plasma of cholestatic rats after oral DH, DH+MX or DHXSD
Type: in vivo, rat
Settings: oral DH 1.2 g/kg, mean ± SD, n = 6
Protocol: Cholestasis was established in rats through a single oral dose of ANIT (60 mg/kg in olive oil). […] Sequential blood samples were obtained at 5, 15, 30 min, and 1, 2, 4, 6, 8, 12, 24, and 36 h after administration. Plasma was separated by centrifugation and deproteinized by adding a 3:1 (v/v) ratio of acetonitrile containing 5 ng/mL IS1. Ultra-performance liquid chromatography–tandem mass spectrometry analysis was performed on the supernatants following a centrifugation, employing the described analytical approach [29].
Pharmacokinetic parameters were calculated using Drug And Statistics software (version 3.0). Intergroup comparisons were performed by one-way ANOVA followed by Tukey’s post hoc test for multiple comparisons. A p-value < 0.05 was considered statistically significant.

O=C1c2cccc(O)c2C(=O)c2c(O)cc(CO)cc21 [Aloe emodin, aloe emodin]
t1/2: 4.88 ± 0.97 h
